The text below walks through data of patent US20230181612A1, “AMINOGLYCOSIDE DERIVATIVES AND USES THEREOF IN TREATING GENETIC DISORDERS” (ELOXX PHARMACEUTICALS LTD., priority 2017, published 2023).

The test system of one data set is human fibroblast cells. Particulars: cited from earlier work.
Data set [1] in a line: Toxicity assay in cochlear explants (organ of Corti). Type of data set: cell-based. Particulars: CBA/J, mouse, cochlear explants (organ of Corti), outer hair cells, concentration at 50% loss of hair cells; 72 hours incubation; read-out: Ototoxicity (Loss of outer hair cells), LC50^Coch. How it is done: (§1) The ototoxicity potential of Set1 and Set2 compounds was tested with cochlear explants as described, for example, in E. Shulman et al., J. Biol. Chem. 289(4), 2318-2330 (2014). The ototoxicity was measured as the value of AG concentration that is needed for 50% of hair loss from the outer hair cells of the cochlea, as follows.
(§2) The tested compounds were screened for toxicity to auditory hair cells in explants of the organ of Corti from CBA/J mice of postnatal day 2-3. The dissected tissue was placed on a collagen-coated incubation dish as a flat surface preparation in 1 ml of serum-free Basal Medium Eagle (Sigma Aldrich, St. Louis, Mo.) plus serum-free supplement (Invitrogen, Eugene, Oreg.), 1% bovine serum albumin, 2 mM glutamine, 5 mg glucose /ml and 10 units penicillin/ml. The explants were incubated for 5 hours (37° C., 5% CO2) and an additional 1 ml of culture medium was added to submerse the explants. After 48 hours of continued pre-incubation the culture medium was exchanged for new medium containing a specified concentration of the tested compound. Following another 72 hours of incubation, the explants were washed three times with PBS, fixed overnight in 4% (v/v) paraformaldehyde at 4° C., and then permeabilized for 30 minutes with 0.3% (v/v) Triton X-100 in PBS. The specimens were washed three times with PBS for 10 minutes at room temperature and incubated with rhodamine phalloidin (1:100; Life Technologies, Eugene, OR), either for 1 hour at room temperature or overnight at 4° C.
(§3) Following several rinses with PBS, the explants were mounted on microscope slides with Fluoro-Gel (Electron Microscopy Sciences, Hatfield, Pa.) and imaged on a Leica SP5 Confocal TCS Microscope (Leica, Wetzlar, Germany). Hair cells were identified by phalloidin-staining of their stereociliary bundles and circumferential F-actin rings. Their presence or absence was quantified using a 50x oil immersion objective on an epifluorescence Leitz Orthoplan microscope (Leica, Wetzlar, Germany), equipped with a calibrated scale (0.19 mm) superimposed on the field of view. All rows of hair cells were oriented longitudinally within each frame and counted from the apex of the cochlea to its base. Cell counts were entered in a computer program and compared to a normative database (KHRI Cytocochleogram, version 3.0.6, Kresge Hearing Research Institute, University of Michigan, Ann Arbor, Mich., USA) and are reported as percent hair cell loss averaged over the entire length of the explant.

In the next data set the target is eukaryotic ribosome. The data set can be described thus: Eukaryotic in vitro translation inhibition (TNT T7 Quick Coupled Transcription/Translation System, luciferase). The class given is biochemical. The settings on record: for IC50: eukaryotic in vitro translation, 30 °C, 60 minutes. How it is done: The Set1 and Set2 compounds as described in Example 1 hereinabove were further tested for their ability to inhibit eukaryotic translation, as follows.
Eukaryotic in vitro translation inhibition was quantified using a TNT® T7 Quick Coupled
Transcription/Translation System with a luciferase T7 control DNA plasmid (Promega), according to the manufacturer protocol. Translation reactions (25 μL) containing variable concentrations of the tested aminoglycoside were incubated at 30° C. for 60 minutes, cooled on ice for 5 minutes, diluted with the dilution reagent and transferred into 96-well plates. In both prokaryotic and eukaryotic systems the luminescence was measured immediately after the addition of the Luciferase Assay Reagent ([…]; Promega), and the light emission was recorded with a FLx800 Fluorescence Microplate Reader (Biotek). The half-maximal inhibition concentration (IC50) values were obtained from fitting concentration-response curves to the data of at least two independent experiments by using Grafit 5 software.

A further data set relates to outer hair cells. Kind of data set: Toxicity assay in cochlear explants (organ of Corti). Type of data set: cell-based. Particulars: for ototoxicity potential, in words: LC50^Coch in the millimolar range; for morphology of hair cell epithelium: F-actin staining. Here is the method: as §1, §2, §3
Data set [2] deals with R3X nonsense mutation (PCDH15, premature UGA C stop codon). Kind of data set: In vitro readthrough, dual luciferase reporter assay, R3X construct. The class given is biochemical. Here is the method:
(§4) The Set1 and Set2 compounds as described in Example 1 hereinabove were tested for their readthrough activity in vitro by using a dual luciferase reporter assay system, as follows.
(§5) DNA fragments derived from PCDH15, CFTR, and IDUA cDNAs, including the tested nonsense mutation or the corresponding WT codon, and four to six upstream and downstream flanking codons, were created by annealing the following pairs of complementary oligonucleotides:
(§6) Fragments were inserted in frame into the polylinker of the p2Luc plasmid between either BamHI and Sad (p.R3X and p.R245X) or Salland Sad (all the rest) restriction sites. For the in vitro readthrough assays, the obtained plasmids, with addition of the tested aminoglycosides were transcribed and translated using the TNT Reticulocyte Lysate Quick Coupled Transcription/Translation System. Luciferase activity was determined after 90 minutes of incubation at 30° C., using the Dual Luciferase Reporter Assay System (Promega™). Stop codon readthrough was calculated as described in Grentzmann et al. RNA 4, 479-486 (1998).
(§7) Reporters carrying R3X nonsense mutation (a premature UGA C stop codon) related to Usher syndrome and G542X (a premature UGA G stop codon) related to Cystic fibrosis were used, and the obtained data is presented in FIGS. 7A-D.

The test system of another data set is ribosomes. Kind of data set: Translational inhibition (TI) in cell-free dual luciferase assay, Renilla of WT plasmid. The class given is biochemical, rabbit. The source says:
(§8) A dual luciferase plasmid carrying the Cystic fibrosis transmembrane conductance regulator (CFTR) mutation, S466X, or wild-type sequence, between Renilla and Firefly luciferase was transcribed and translated in vitro using rabbit reticulocytes (TNT mix) and then tested for functional activity of firefly and renilla luciferases. WT plasmids expressed both firefly and renilla luciferases while mutant plasmids expressed only the renilla luciferase due to the stop codon found in the inserted sequence. The readthrough assays were conducted for the tested compounds and controls by adding the compounds to the in vitro transcription/translation reaction mixture.
(i) Translational Inhibition (TI; The extent of the translational inhibition of ribosomes by NB74-MeS and NB124-MeS was calculated using the reduction in the Renilla bioluminescence values of WT plasmid by nonlinear regression curve fit on a plot of Relative Light Units (RLU) versus the log NB74-MeS and NB124-MeS molar concentration (Find ECanything analysis, GraphPad PRISM, version 7).

Data set [3] has as its system G542X nonsense mutation (CFTR, premature UGA G stop codon). The data set can be described thus: In vitro readthrough, dual luciferase reporter assay, G542X construct. Type of data set: biochemical. Particulars: cystic fibrosis, in words, versus parent compound. How it is done:
as §4, §5, §6, §7
(In general: Reporter assays use an easily measured gene product as a stand-in for the process of interest.)

The test system of data set [4] is CFTR S466X nonsense mutation. Kind of data set: Readthrough activity in cell-free dual luciferase assay, CFTR S466X. Type of data set: biochemical, rabbit.
Description: as §8
Read-through activity induced by NB74-MeS and NB124-MeS was calculated from the dual luciferase assay data using results from both the WT and mutant plasmids and the following equation: […]
(iii) Readthrough efficiency is presented as fold-increase in Firefly luciferase activity between NB74-MeS and NB124-MeS treated and non-treated mutant plasmid.
(iv) % readthrough of WT is calculated as the percentage of FF/Renilla of the mutant plasmid divided by the FF/Renilla of the WT plasmid.

“Also recorded” adds a separate entry of the source.

Consider `CNC1C(O)C(OC2C(N)CC(N)C(OC3OC(C(C)O)C(O)C(O)C3N)C2O)OCC1(C)O` (centres unmarked) [Compound G-418], for which the LD50 with human fibroblast cells was 0.04 mg/mL.
As for `C[C@@H](O)C1O[C@H](O[C@@H]2C(N)C[C@@H](N)C(O)[C@H]2O[C@@H]2O[C@H](CN)[C@H](O)C2O)C(N)[C@@H](O)[C@@H]1O` (some centres unmarked) [NB74, reference compound], in data set [1], the CC50 at 72 h was found to be 112 µM. Moreover, at eukaryotic ribosome, the IC50 was 14.3 µM.
Take `CC(=O)N[C@@H]1CC(N)[C@@H](O[C@H]2OC([C@@H](C)O)[C@@H](O)C(O)C2N)C(O[C@@H]2O[C@H](CN)C(O)C2O)C1O` (stereo partly drawn) [NB74-Ac, 6′-(R)-Methyl-5-O-(5″-amino-5″-deoxy-β-D-ribofuranose)-2′,3-amino-1-N-acetamide paromamine]: the CC50 at 72 h in data set [1] came to 2400 µM. Moreover, in the data set on outer hair cells, the “ototoxicity potential, in words” value is “incredibly low ototoxicity potential”. The CC50 with outer hair cells (concentration at 50% loss of hair cells, 72 hours incubation, read-out: Ototoxicity (Loss of outer hair cells), LC50^Coch) worked out at 2040 µM. In the data set on outer hair cells (from LC50^Coch values), the “ototoxicity relative to parent compound” value was “decreased in three orders of magnitude”. Besides, at eukaryotic ribosome, the IC50 is 92.3 ± 9.9 µM.
As to `C[C@@H](O)C1O[C@H](O[C@@H]2C(N)C[C@@H](NC(=O)c3ccccc3)C(O)C2O[C@@H]2O[C@H](CN)C(O)C2O)C(N)C(O)[C@@H]1O` (stereo partly drawn) [NB74-Bz, 6′-(R)-Methyl-5-O-(5″-amino-5″-deoxy-β-D-ribofuranose)-2′,3-amino-1-N-benzamide paromamine], the IC50 against eukaryotic ribosome was 755 µM. For the same molecule, in the data set on eukaryotic ribosome (from IC50 values), the “folds less specific to the eukaryotic ribosome than NB74” value is on record as 54 folds.
With `C[C@@H](O)C1O[C@H](O[C@@H]2C(N)C[C@@H](NS(C)(=O)=O)C(O)C2O[C@@H]2O[C@H](CN)C(O)C2O)C(N)C(O)[C@@H]1O` (stereo partly drawn) [NB74-MeS, 6′-(R)-Methyl-5-O-(5″-amino-5″-deoxy-11-D-ribofuranose)-2′,3-amino-1-N-methanesulfonamide paromamine], in data set [1], the CC50 at 72 h stood at 61.8 µM. Further, the IC50 is 8.35 µM against eukaryotic ribosome and greater than 16 µM in the data set on ribosomes (read-out: TI50 (the source's name)). In the data set with eukaryotic ribosome (from IC50 values), the “folds more specific to the eukaryotic ribosome than NB74” value was determined as 1.7 folds. Besides, the “folds better readthrough activity in comparison to NB74” value in data set [2] is “about 1.5 folds”. In the data set with ribosomes, this molecule yielded a TI80 of 16 µM. For the same molecule, the “readthrough activity, G542X mutation” value in data set [3] is reported as “better activity”. For the same molecule, the “Fold Read-through at TI80” value in data set [4] (S466X, relative to MUT control, 0-16 μM range) is 9.9 Fold. The “% Read-through at TI80” value in data set [4] (S466X, relative to WT) worked out at 17%. The “suppression of cystic fibrosis S466X nonsense mutation, in words” value in data set [4] (cell-free assay, data not shown) was “dose-response suppression”.
`C[C@@H](O)C1O[C@H](O[C@@H]2C(N)C[C@@H](NS(=O)(=O)c3ccccc3)C(O)C2O[C@@H]2O[C@H](CN)C(O)C2O)C(N)C(O)[C@@H]1O` (stereo partly drawn) [NB74-PhS, 6′-(R)-Methyl-5-O-(5″-amino-5″-deoxy-II-D-ribofuranose)-2′,3-amino-1-N-phenylsulfonamide paromamine]: in data set [1], the CC50 at 72 h was determined as 176 µM. The molecule further showed an IC50 on eukaryotic ribosome of 160 ± 3.6 µM.
`C[C@H](N)[C@H]1O[C@@H](O[C@@H]2C(O)[C@H](N)CC(N)[C@H]2O[C@H]2OC([C@@H](C)O)[C@@H](O)[C@H](O)C2N)C(O)[C@H]1O` (some centres unmarked) [NB124, reference compound]: in data set [1], the CC50 at 72 h stood at 11.1 µM. For the same molecule, the “morphology of hair cell epithelium” value in the data set on outer hair cells (15 μM, 72 hours) was “almost complete”. In the data set with outer hair cells (15 μM, 72 hours, basal part of the cochlea), the “hair cell loss / damage” value was 80-90%.
Turning to `CC(=O)N[C@@H]1CC(N)[C@@H](O[C@H]2OC([C@@H](C)O)[C@@H](O)C(O)C2N)C(O[C@@H]2O[C@H]([C@H](C)N)C(O)C2O)C1O` (stereo partly drawn) [NB124-Ac, 6′-(R)-Methyl-5-O-(5-(R)-amino-5-deoxy-β-D-ribofuranose)-2′,3-amino-1-N-acetamide paromamine], the CC50 at 72 h in data set [1] amounted to 1600 µM. Moreover, the “morphology of hair cell epithelium” value in the data set with outer hair cells (150 μM, 72 hours) is “remained normal and indistinguishable from the control; also recorded: essentially normal morphology”. In addition, the “ototoxicity potential, in words” value with outer hair cells is reported as “incredibly low ototoxicity potential”.
Regarding `C[C@H](N)[C@H]1O[C@@H](OC2C(O)[C@H](NS(C)(=O)=O)CC(N)[C@H]2O[C@H]2OC([C@@H](C)O)[C@@H](O)C(O)C2N)C(O)C1O` (some centres unmarked) [NB124-MeS], in data set [3], the “readthrough activity, G542X mutation” value is given as “better activity”.
